Entries after “also recorded” stand apart in the source; their conditions may differ. Ends that are not written are not given here.
Key:
[1] = test system: Leishmania infantum promastigotes (strain MHOM/MA/67/ITMAP-263); assay: Tests of anti-leishmanial activity on promastigotes expressing the luciferase; format: cell-based; conditions: result in words
Protocol: Leishmanicidal activity of peptides was evaluated on the promastigote form of Leishmania infantum (strain MHOM/MA/67/ITMAP-263), responsible for visceral leishmaniosis.
Promastigotes were maintained at 26° C. by one or two weekly passages, depending on the number of parasites in the inoculum, in SDM 79 medium supplemented with 10 to 20% decomplemented fetal calf serum and […] porcine hemin and in the presence of 100 U/mL penicillin and 100 μg/mL streptomycin (Brun et al., 1979). Starting from an inoculum of 10^5 cells/mL in logarithmic growth phase, the promastigotes reached a cell density of 1 to 2×10^8 parasites/mL in stationary phase after 5 days of culture in 25 cm^2 culture flasks. Cell densities were determined by flow cytometry in the presence of propidium iodide on a FAC Scan cytometer (Excalibur, Becton Dickinson, Ivry, France).
The tests of anti-leishmanial activity were carried out with a parasite line expressing the luciferase. […]
After 72 hrs of incubation at 26° C., 50 μL of Steady-Glo lysis buffer (Promega) were added to each well. […] Emitted luminescence was measured with a luminescence plate reader (Victor, PerkinElmer). […] The percentage growth was calculated according to the following formula: % growth=[(L mean−bgd)peptide×100]/(L mean−bgd)negative control
where L mean: mean luminescence and bgd: background corresponding to the luminescence emitted by the culture medium. […]

[2] = test system: THP-1 monocyte-derived macrophages; assay: Cytotoxicity test on THP-1 human monocytes-derived macrophages; format: cell-based; conditions: result in words
Protocol: The viability of macrophages was ascertained using a trypan blue-based microassay. THP-1 cells from a culture suspension in mid-log phase of growth were plated at a density of 5×10^5 cells/mL in 96-well plates (100 μL/well, i.e., 5×10^4 cells/well) and differentiated as described above. After incubation for 72 hrs at 37° C. with 5% CO2, in the presence of peptide (60 μM to 7.5 μM, final concentrations), adherent macrophages were washed once with prewarmed RPMI 1640 medium and stained for 5 min, with 100 μL of trypan blue 2-fold diluted in RPMI 1640 medium. Wells were then washed twice with 100 μL of RPMI 1640 medium. Living white cells were microscopically counted in three focuses per well using a reticulated ocular.
The viability index (VI) was calculated for each peptide concentration using the following formula: VI=[N meanpeptide×100]/N meannegative control.
where N mean is the mean number of viable parasites. The negative control (100% growth) contained 20 μL of RPMI medium in place of the peptide solution.
The LC50 value, which corresponds to the peptide concentration inducing lysis of 50% of the cells, was determined from the viability indexes. Tests were carried out in sextuplicate for each peptide concentration and at least two independent experiments were performed to determine the LC50 value.

rat erythrocytes = assay: Hemolytic test; format: cell-based; conditions: for hemolytic activity (in words): rat erythrocytes, result in words
Protocol: (§1) The hemolytic activity of the antimicrobial peptides was assessed using rat erythrocytes. Red blood cell hemolysis is manifested by the release into the reaction medium of hemoglobin, the concentration of which is determined spectrophotometrically at 450 nm.
(§2) Red blood cells were separated from plasma and white blood cells by centrifugation of blood (900×g, 10 min). The pellet containing red blood cells was washed three times with PBS buffer, pH 7.4. After counting on a Malassez cell, a stock solution of 4×10^8 red blood cells/mL was prepared in the same buffer. A series of concentrations of the peptides to be tested was prepared (2 to 400 μM).
(§3) The test was carried out as follows: 50 μL of the different peptide concentrations were added to 50 μL of the red blood cell suspension. After 1 hr of incubation at 37° C. followed by centrifugation (12,000×g, 15 sec), absorbance of the supernatant was measured at 450 nm. The negative control for this test (0% hemolysis) contained […] in place of the peptide solution. The positive control (100% hemolysis) contained 50 μL of 0.1% Triton X-100 in place of the peptide solution.
(§4) The LC50 value obtained is the mean of three experiments carried out in triplicate and corresponds to the peptide concentration inducing hemolysis of 50% of the cells.

[3] = test system: Gram-positive and Gram-negative bacterial strains; format: cell-based
Text: The following strains were used for the antibacterial activity tests: Escherichia coli (ATCC 25922 and ML-35p), Staphylococcus aureus (ATCC 25923 and ST1065), Enterococcus faecalis (ATCC 29212), Pseudomonas aeruginosa (ATCC 27853), Streptococcus pyogenes (ATCC 19615), Listeria ivanovii, Salmonella enterica (serotype Enteritidis), Acinetobacter baumannii (ATCC 19606) and Klebsiella pneumoniae (ATCC 13883). Two antibiotic-resistant strains were also used (S. aureus ATCC 43300 and ATCC BAA-44).
For each strain, a standard inoculum of approximately 10^6 bacteria/mL (exponential growth phase) was prepared. To this end, a colony isolated on LB agar previously inoculated with one of the strains was cultured in 4 mL of LB broth medium, except for S. pyogenes and L. ivanovii, which were grown in BHI (Brain Heart Infusion) from a colony isolated on BHI agar. Liquid cultures were then incubated for 2 to 3 hrs at 37° C. with shaking for the bacteria to reach exponential growth phase. […]
The minimum inhibitory concentration (MIC) of each peptide was determined by a test of growth inhibition in broth medium. […] Bacterial growth was determined by measuring OD at 630 nm (turbidity) on a plate reader. […]

yeasts = assay: Tests of antifungal activity (growth inhibition in YPD broth medium, MIC); format: cell-based
Protocol: Three yeast strains were used: Saccharomyces cerevisiae, Candida albicans (ATCC 90028), Candida parapsilosis (ATCC 22019). These strains were first grown on YPD agar for a minimum of 48 hrs. Yeast suspensions were then prepared, exactly as for bacteria, and adjusted to 10^6 cfu/mL in YPD broth medium.
The antifungal activity test corresponds to the growth inhibition test in broth medium used for the bacteria (see above) in which MH medium was replaced by YPD medium. Fungal strains were incubated at 30° C.

[4] = test system: Leishmania infantum promastigote; conditions: read-out: IC50 against the promastigote form; cited from earlier work
[5] = test system: Leishmania infantum axenic amastigote; conditions: read-out: IC50 against the axenic amastigote form; cited from earlier work
Hemolytic test = format: cell-based, rat; conditions: rat erythrocytes (washed red blood cells), pH 7.4, rat erythrocytes, 1 hr at 37° C.; for CC50 at 1 hr: read-out: LC50 (hemolytic activity), unit inferred
Protocol: as §1, §2, §3, §4

Substance | hemolytic activity (in words) (rat erythrocytes) | CC50 at 1 hr (Hemolytic test) [µM] | also measured
F-L-K-G-I-K-G-M-L-G-K-L-L (FLKGIKGMLGKLL-NH2) [[K^3, K^6, L^13]temporin-SHa] | – | – | anti-leishmanial activity on L. infantum promastigotes (in words) [1]: approaches the cytotoxicity level of monocytes
FLKGIVGMLGKLL-NH2 [[K^3,L^13]temporin-SHa, F-L-K-G-I-V-G-M-L-G-K-L-L] | lower hemolytic activity; also recorded: lesser haemolytic | – | cytotoxicity against the host cell (macrophage) (in words) [2]: reduced cytotoxicity; fold lower hemolytic activity than [K^3]temporin-SHa (rat erythrocytes; relative to [K^3]temporin-SHa): 2 fold
FLKGIVGMLGKLF-NH2 [[K^3]temporin-SHa] | – | – | MIC ([3]; Gram-positive (including antibiotic-resistant S. aureus strains) and Gram-negative bacterial strains of clinical interest): 3 to 6 µM; antimicrobial activity (in words) ([3]; bacteria and yeasts tested, result in words): more potent; MIC (yeasts): 3 to 6 µM
FLSGIVGMLGKLF [temporin-SHa, F-L-S-G-I-V-G-M-L-G-K-L-F] | – | – | IC50 [4]: 18.1 µM; IC50 [5]: 22.8 µM
KGIVGMLGKLF-NH2 [[K^3]temporin-SHa(3-13)] | devoid of hemolytic activity | – | HC50 at 1 hr (Hemolytic test; read-out: LC50 (hemolytic activity)): 618 µM
FLKGIVGKLGKLF-NH2 [[K^3,K^8]temporin-SHa, F-L-K-G-I-V-G-K-L-G-K-L-F] | no hemolytic activity | > 500 | –
FLKGIVGKLGKLL-NH2 [[K^3, K^8,L^13]temporin-SHa, F-L-K-G-I-V-G-K-L-G-K-L-L] | no hemolytic activity | > 500 | –
FLKGIKGMLGKLF-NH2 [[K^3,K^6]temporin-SHa, F-L-K-G-I-K-G-M-L-G-K-L-F] | no hemolytic activity | > 500 | –
FLKGIVGMLGKLW-NH2 [[K^3,W^13]temporin-SHa, F-L-K-G-I-V-G-M-L-G-K-L-W] | lower hemolytic activity; also recorded: lesser haemolytic | – | –
